In patent US20180271863A1, “TARGETING P2 PURINERGIC RECEPTORS TO TREAT HEPATOCELLULAR CARCINOMA (HCC)” (Baylor College of Medicine, priority 2015, published 2018):

Key:
Type in all cases: cell-based, human
Huh7 cells [1] = assay: Western blotting of cyclin and CDK proteins in Huh7 cells
Protocol: (§1) Normal human primary hepatocytes isolated from healthy adults (no known history of HCC) in suspension or freshly-frozen prior to shipment (Cryoport Systems, CA) were purchased from Triangle Research Labs, NC. Fresh hepatocytes were plated on collagen-coated tissue culture plates or glass coverslips in Williams E complete media with additives (10% fetal bovine serum, 2 mM glutamine, […] insulin, 4 ng/ml glucagon, […] transferrin, 2.5 ng/ml sodium selenite, 10,000 U/ml penicillin, […] streptomycin, 50 g/ml gentamycin) for 3 h to ensure hepatocyte adherence to plates. Subsequently, hepatocytes were maintained in Williams E minimal media free from serum and growth factors for 24 h prior to treatment. Human hepatocellular carcinoma derived Huh7, and Hep3B, were cultured in Minimum Essential Medium Eagle (MEM); SNU-387 was cultured in Roswell Park Memorial Institute (RPMI) medium and PLC/PRF/5 cultured in Dulbecco's Modified Eagle's medium (DMEM). All maintenance culture media were supplemented with 10% fetal bovine serum (FBS), L-Glutamine (2 mM), penicillin (100 units/ml) and streptomycin ([…]) at 37° C. and 5% CO2. Cells were maintained in serum free media (containing 2 mM L-Glutamine, 100 units/ml penicillin and ([…])) streptomycin for 24 h prior to treatment.
Total protein extracts were obtained by homogenizing cells in total lysis buffer (50 mM Tris-HCl, pH 7.5, 0.5 M NaCl, 2 mM EGTA, 2 mM EDTA, 1.0% Triton X-100, 0.25% Deoxycholate, 1 m/ml pepstatin, 1.0 m/ml leupeptin, 1.0 m/ml aprotinin, 1.0 mM phenylmethylsulfonyl fluoride, 1.0 mM Dithiothreitol, 2.0 mM activated Na3VO4, and 2.0 mM NaF) and centrifuging at 14,000 rpm for 10 min (4° C.). Equal amounts of total proteins as determined by BCA protein Assay (Pierce, Rockford, Ill.) were analyzed by Western blotting. Blots were probed with antibody specific for a-tubulin or GAPDH to ensure equal loading of proteins in each lane.

Huh7 cells [2] = assay: BrdU incorporation (proliferation) in Huh7 cells; conditions: nucleotide 100 μM
Protocol: To determine whether P2 purinergic receptor activation influences HCC cell proliferation, BrdU incorporation was assessed in HCC cells maintained in SFM for 24 hours and treated with ATP for 24 hours. ATP treatment alone was sufficient to induce proliferation in each of these cell lines (Huh7, 34%; Hep3B, 46%; SNU-387, 47% and PLC/PRF/5, 24%), identifying nucleotides as liver cancer cell mitogens (FIG. 7A).
Extracellular ATP can be hydrolyzed to ADP and adenosine by ectonucleotidases at the plasma membrane. Therefore, Applicants tested the effects of ATPγS (non-hydrolyzable analog of ATP) or ADP (break down product of ATP) (100 μM) on Huh7 cell proliferation. ATPγS treatment alone was sufficient to induce BrdU incorporation as early as 12 hours (42%); maintained at 18 h (30%) and 24 h (29%) in Huh7 cells (FIG. 8). ADP was also able to independently increase the number of BrdU positive nuclei (12 h, 30%; 18 h, 35%; 24 h, 37%) (FIG. 8). Furthermore, ATP treatment (18 h) increased cell proliferation and viability in all four cell lines, as determined by MTT assay (Huh7, 65%; Hep3B, 81%; SNU-387, 90% and PLC/PRF/5, 43%) (FIG. 7B).
as §1
Formalin-fixed and paraffin embedded liver sections from HCC patients were analyzed by immunohistochemistry with anti-P2X3 antibody (Abcam, Cambridge, Mass.). HCC cells were grown on glass coverslips; BrdU (10 μM, Roche, Indianapolis, Ind.) was added to culture media for 1 h prior to fixation (cold acetone:methanol, 1:1) and stained using anti-BrdU antibody (DAKO, Carpinteria, Calif.) and DAB Peroxidase Substrate Kit (Vector Labs, Burlingame, Calif.), according to manufacturer's instructions. Counterstaining was done with hematoxylin. BrdU positive cells were counted and expressed as a percentage of the total number of cells in ten randomly selected high-power fields (20×) per coverslips.

Huh7 cells [3] = assay: qRT-PCR of cyclin mRNA in Huh7 cells
Protocol: Normal human primary hepatocytes isolated from healthy adults (no known history of HCC) in suspension or freshly-frozen prior to shipment (Cryoport Systems, CA) were purchased from Triangle Research Labs, NC. Fresh hepatocytes were plated on collagen-coated tissue culture plates or glass coverslips in Williams E complete media with additives (10% fetal bovine serum, 2 mM glutamine, […] insulin, 4 ng/ml glucagon, […] transferrin, 2.5 ng/ml sodium selenite, 10,000 U/ml penicillin, […] streptomycin, 50 g/ml gentamycin) for 3 h to ensure hepatocyte adherence to plates. Subsequently, hepatocytes were maintained in Williams E minimal media free from serum and growth factors for 24 h prior to treatment. Human hepatocellular carcinoma derived Huh7, and Hep3B, were cultured in Minimum Essential Medium Eagle (MEM); SNU-387 was cultured in Roswell Park Memorial Institute (RPMI) medium and PLC/PRF/5 cultured in Dulbecco's Modified Eagle's medium (DMEM). All maintenance culture media were supplemented with 10% fetal bovine serum (FBS), L-Glutamine (2 mM), penicillin (100 units/ml) and streptomycin ([…]) at 37° C. and 5% CO2. Cells were maintained in serum free media (containing 2 mM L-Glutamine, 100 units/ml penicillin and ([…])) streptomycin for 24 h prior to treatment. Total RNA was isolated from human livers or cells using Trizol Reagent according to manufacturer's instructions (Invitrogen, NY). Complementary DNA (cDNA) synthesis was performed by reverse transcription of total RNA (2 μg) with high capacity cDNA reverse transcription kit (Applied Biosystems, Foster city, CA). The cDNA product was amplified by qRT-PCR in Step One Plus Real-Time PCR system using SYBR Green PCR Master Mix (Applied Biosystems, Grand Island, N.Y.). Quantitative expression values were determined using the […] as specified by manufacturers using GAPDH as a control.

Huh7 cells [4] = assay: Western blotting for hippo pathway phosphorylation (Mst1/2, LATS, Yap) in Huh7 cells
Protocol: Total protein extracts were obtained by homogenizing cells in total lysis buffer and analyzed by Western blotting as described recently (Oncotarget 2015; 6:41162-41179). […] Therefore, Applicants performed in vitro studies to test whether activation of P2 purinergic receptors may affect the hippo pathway and its downstream effectors. Huh7 cells—human derived hepatocellular carcinoma cells—maintained in serum free media for 24 hours—were treated with P2 purinergic receptor agonists. […] ADP treatment alone was also sufficient to induce LATs phosphorylation (2 h-1.7 fold, 4 h-1.5 fold) (FIG. 20B). […] Hippo kinases Mst1/2 and Lats1/2 work through a phosphorylation cascade to phosphorylate Yap, thereby retaining Yap in the cytoplasm. In spite of nucleotide-mediated Mst1/2 and Lats phosphorylation, ATP, ADP and ATPγS treatment was individually insufficient to induce Yap phosphorylation. […] Similarly, ATP treatment alone increased nuclear YAP protein expression (1.7 fold) (FIG. 20D).

Huh7 cells [5] = assay: qRT-PCR of YAP target genes in Huh7 cells
Description: Total RNA was isolated from human livers or cells and was amplified by qRT-PCR as described recently (Oncotarget 2015; 6:41162-41179). Next, Applicants tested whether extracellular nucleotide treatment may have an effect on YAP target genes important in hepatocellular carcinoma. […] Moreover, P2X3 antagonist (AF-353) pretreatment attenuated ATP mediated induction of survivin (FIG. 20G).

`CSc1nc(N)c2ncn([C@@H]3O[C@H](COP(=O)(O)OP(=O)(O)OP(=O)(O)O)[C@@H](O)[C@H]3O)c2n1` [2-MeSATP] was tested, and the “cyclin D3 expression” value (Huh7 cells [1]; 2MeSATP 50 μM alone, 24 h) was 1.9 fold.

With `O=C(O)c1cc(C(=O)O)c(C(=O)N(Cc2cccc(Oc3ccccc3)c2)[C@H]2CCCc3ccccc32)cc1C(=O)O` [A317491] the “effect on ATP induced cyclin D3 expression” value (Huh7 cells [1]; A317491 30 μM pre-treatment, ATP 24 h) was “attenuated”.

For `Nc1ncnc2c1ncn2[C@@H]1O[C@H](COP(=O)(O)OP(=O)(O)O)[C@@H](O)[C@H]1O` [ADP], the “BrdU incorporation / BrdU positive nuclei” value (Huh7 cells [2]; 12 h) was 30%, the “BrdU incorporation / BrdU positive nuclei” value (Huh7 cells [2]; 18 h) was 35% and the “BrdU incorporation / BrdU positive nuclei” value (Huh7 cells [2]; 24 h) was 37%. For the same molecule, the “Cyclin D3 mRNA expression vs untreated cells” value (Huh7 cells [3]; 12 h treatment) was 2.7 fold, the “Cyclin D3 mRNA expression vs untreated cells” value (Huh7 cells [3]; 36 h treatment) was 2.8 fold and the Yap phosphorylation (Huh7 cells [4]; Huh7, 12 h treatment) was 0.2 fold. For the same molecule, the “induction of Yap phosphorylation” value (Huh7 cells [4]; Huh7, 12 h treatment) was “insufficient”, the AREG gene expression (Huh7 cells [5]; 24 h treatment) was 2.6 fold and the CTGF gene expression (Huh7 cells [5]; 24 h treatment) was 2.5 fold. For the same molecule, the Sox9 gene expression (Huh7 cells [5]; 24 h treatment) was 1.4 fold, the “cyclin E gene expression” value (Huh7 cells [5]; 24 h treatment) was 2.4 fold and the survivin gene expression (Huh7 cells [5]; 24 h treatment) was 1.4 fold.

With `Cc1nc(N=Nc2ccc(S(=O)(=O)O)cc2S(=O)(=O)O)c(COP(=O)(O)O)c(C=O)c1O` [PPADS] the “effect on ATPγS-induced AREG and CTGF expression” value (Huh7 cells [5]; ATPγS ± PPADS, 24 h) was “completely attenuated”.

For `Cc1ccc(C(=O)Nc2ccc(S(=O)(=O)O)c3cc(S(=O)(=O)O)cc(S(=O)(=O)O)c23)cc1NC(=O)c1cccc(NC(=O)Nc2cccc(C(=O)Nc3cc(C(=O)Nc4ccc(S(=O)(=O)O)c5cc(S(=O)(=O)O)cc(S(=O)(=O)O)c45)ccc3C)c2)c1` [Suramin], the “effect on nucleotide induction of cyclin D3 mRNA” value (Huh7 cells [3]; Suramin pre-treatment (30 minutes) before 24 hours nucleotide treatment) was “dose dependent attenuation” and the “effect on baseline cyclin D3 expression” value (Huh7 cells [3]; Suramin treatment alone) was “reduced”.

`O=c1ccn([C@@H]2O[C@H](COP(=O)(O)OP(=O)(O)OP(=O)(O)O)[C@@H](O)[C@H]2O)c(=O)[nH]1` [UTP] was tested, and the Mst1/2 phosphorylation (Huh7 cells [4]; Huh7, serum free 24 hours, as early as 5 minutes, sustained at 4 hours) was “significantly induced”.
